# Measured values published in patent US5187157A, “Peptide boronic acid inhibitors of trypsin-like proteases” (Du Pont Merck Pharmaceutical Company, priority 1988, dated 1993).
# Residues, ends and D or L forms follow the SMILES beside them. *: point of attachment. X1 = CC1(C)C2CC3OB(C(CCCNC(=N)N)N*)OC3(C)C1C2; Boc = CC(C)(C)OC(=O)*
# Experiments:
# Human plasma kallikrein = target: T1, Human plasma kallikrein (Homo sapiens, UniProt P03952); test: Inhibition of Human Plasma Kallikrein; type: biochemical; conditions: for Percent Activity: activity remaining 10 to 20 min after initiation
# T1 construct: purchased Protogen AG (Switzerland)
# T1 sequence (P03952 391-638 limits assumed): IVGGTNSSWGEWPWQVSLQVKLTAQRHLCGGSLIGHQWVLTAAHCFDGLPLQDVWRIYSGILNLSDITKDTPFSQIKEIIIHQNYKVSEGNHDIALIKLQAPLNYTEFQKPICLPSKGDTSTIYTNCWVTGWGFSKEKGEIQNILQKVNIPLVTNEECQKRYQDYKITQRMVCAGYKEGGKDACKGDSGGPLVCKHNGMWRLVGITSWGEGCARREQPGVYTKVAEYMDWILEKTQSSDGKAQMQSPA
# T1 sequence (P03952 20-390 partner limits assumed): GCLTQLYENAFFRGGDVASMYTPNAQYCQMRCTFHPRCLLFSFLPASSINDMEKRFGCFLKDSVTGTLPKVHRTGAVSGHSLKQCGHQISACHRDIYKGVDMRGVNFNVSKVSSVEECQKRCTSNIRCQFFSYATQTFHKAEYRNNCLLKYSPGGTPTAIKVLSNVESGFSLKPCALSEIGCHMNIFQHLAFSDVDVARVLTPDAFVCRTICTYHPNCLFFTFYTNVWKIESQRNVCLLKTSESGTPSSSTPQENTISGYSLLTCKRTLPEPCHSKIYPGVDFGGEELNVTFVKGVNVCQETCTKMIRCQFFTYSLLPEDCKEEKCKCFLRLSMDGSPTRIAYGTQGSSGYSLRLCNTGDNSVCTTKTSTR
# Description: (§1) In the Examples which follow, the hydrolytic activity of each enzyme is measured in both the presence and absence of inhibitor and the percent enzyme activity determined. […] A steady state is reached fairly rapidly and nears completion within 5 min. Activity is evaluated between 10-20 min after the components are mixed to insure that reaction components are at equilibrium. The lowest concentration of inhibitor tested is determined by the estimated concentration of enzyme. […] The maintenance of pseudo-first-order reaction conditions and the sensitivity of the respective assays sets the lowest limit level of inhibitor tested at 10 nM for kallikrein inhibitors and 5 nM for thrombin inhibitors.
# Human plasma kallikrein was obtained from Protogen AG (Switzerland). The specific activity as described by the supplier is 15 units per mg. A unit is defined as the quantity of enzyme required to hydrolyze 1 μmole of substrate, H-(D)Pro-Phe-Arg-p-nitroanilide (Kabi S2302), per min at a substrate concentration of 0.50 mM at 25° in 50 mM potassium phosphate buffer, pH 8.0.
# Human thrombin = target: T2, Human thrombin (Homo sapiens, UniProt P00734); test: Inhibition of Thrombin (Esterase Activity); type: biochemical; conditions: for Percent Activity: activity remaining 10 to 20 min after initiation
# T2 construct: purchased R.Q.P. Laboratories, South Bend, IN Lot HT102
# Description: as §1
# A stock solution of thrombin was prepared in 0.010M PIPES Buffer, pH 6.0, containing 0.75 M sodium chloride. […] The initial concentration of substrate was 0.10 mM and the concentration of thrombin was 1.0 nM (based on weight).
# normal human plasma [1] = test: Activated partial thromboplastin times (APTT), blood coagulation in vitro; type: biochemical; conditions: for Calc. Concentration 2 × APTT: approximate concentration required to increase APTT two fold
# Description: (§2) The effectiveness of inhibitors in reactions in which they compete with natural substrates for target enzymes is measured in vitro in blood coagulation assays. Two different assays are used, the APTT (activated partial thromboplastin times) and PT (prothrombin times) assays. These assays mimic the blood clotting process in vivo. Blood coagulation occurs through either of two pathways, each consisting of a cascades of zymogen activation steps. The pathways are termed the intrinsic and the extrinsic pathways (see L. Lorand, Methods in Enzymology 45: 31-37 (1976). The intrinsic pathway is initiated by negatively charged surfaces in which plasma kallikrein, factor XII and factor […] are activated and then factors IX and X and prothrombin are activated in calcium dependent steps. Thrombin, the last protease in the cascade, hydrolyses fibrinogen to fibrin which results in clot formation. In the APTT assay, plasma components are activated by exposure to negatively charged surfaces and then clotting times are measured after calcium is added to the system. In the extrinsic pathway, tissue thromboplastin activates factor VII which then activates factor X leading to the activation of thrombin. These events are measured in the prothrombin times assay.
# The effect of protease inhibitors on blood coagulation in vitro was determined by measuring their effects on two different clinical parameters, the activated partial thromboplastin times (APTT) and prothrombin times (PT). Reagents for each of these assays were supplied by General Diagnostics, Jessup MD. Stock solutions of inhibitors were prepared in […] HEPES buffer, pH 7.5, containing 0.10 M sodium chloride. For the APTT assay, the inhibitor solution (0.100 mL) was incubated with normal human plasma (0.100 mL) and automated APTT reagent (0.100 mL). After incubation for 5.0 min at 37°, calcium chloride (0.100 mL) was added and the clotting times, measured in seconds, was determined on a fibrameter. The effects of the varying concentrations of inhibitor on blood clotting times compared with the clotting times of controls run in the absence of inhibitor, are shown in Table 3.
# normal human plasma [2] = test: Prothrombin times (PT), blood coagulation in vitro; type: biochemical; conditions: for Calc. Concentration 2 × XPT: approximate concentration required to increase PT two fold
# Description: as §2
# For PT assays, inhibitor solutions (0.100 mL) were incubated with normal human plasma (0.100 mL) for 2 min at 37°.
# Sprague Dawley CD Rats = test: In Vivo Inhibition of Croton Oil Induced Inflammation (ear swelling)
# Description: Two solutions were prepared, the first consisting of 5% croton oil, a known inflammatory agent, in an acetone carrier (Croton Solution) and the second consisting of 5% croton oil in an acetone carrier to which 10 mg/mL of a compound of the invention was added (Compound Solution). The Croton Solution (10 μL), or alternatively the Compound Solution (10 μL), was applied to the right ear of each animal (Sprague Dawley CD Rats, 130-140 g, supplied by Charles River Labs, Inc., Wilmington, MA). […] "SE" denotes standard error.
# [3] = Table 14, dose=100 μg, essentially the same conditions
molecule,measurement,setting,value
"Br.CC(=O)NC(C)C(=O)NC(CCCCNC(=O)OC(C)(C)C)C(=O)NC(CCCSC(=N)N)B1OC2CC3CC(C3(C)C)C2(C)O1 (stereo not drawn) [Ac--Ala--Lys(Boc)--boroIrg--C10 H16.HBr, Ac-Ala-Lys(Boc)-boroIrg-C10 H16.HBr]",Percent Activity,Human plasma kallikrein; inhibitor 50 nM,1.4%
same,Percent Activity,Human thrombin; inhibitor 100 nM,55%
"Br.CC(NC(=O)OC(C)(C)C)C(=O)NC(Cc1ccccc1)C(=O)NC(CCCCSC(=N)N)B1OC(C)(C)C(C)(C)O1 (stereo not drawn) [Boc-Ala-Phe-(D,L)boroHomoIrg-C6 H12.HBr]",Percent Activity,Human plasma kallikrein; inhibitor 100 nM,38%
same,Percent Activity,Human thrombin; inhibitor 10000 nM,32%
"CC1(C)C2CC3OB(C(CCCNC(=N)N)NC(=O)C(Cc4ccccc4)NC(=O)C4CCCN4C(=O)c4ccccc4)OC3(C)C1C2.O=S(=O)(O)c1ccccc1 (stereo not drawn) [Bz--Pro--Phe--boroArg--C10 H16.BSA, Bz-Pro-Phe-boroArg-C10 H16.benzene sulfonic acid]",Percent Activity,Human plasma kallikrein; inhibitor 10 nM,15%
same,Percent Activity,Human thrombin; inhibitor 1000 nM,24%
"Boc-Ala-Phe-(D,L)boroIrg-C6 H12.HBr [Boc--Ala--Phe--(D,L)boroIrg--C6 H12.HBr]",Percent Activity,Human plasma kallikrein; inhibitor 10 nM,15%
same,Percent Activity,Human thrombin; inhibitor 1000 nM,28%
"CC1(C)C2CC3OB(C(CCCNC(=N)N)NC(=O)CNC(=O)C(CCC(=O)O)NC(=O)c4ccccc4)OC3(C)C1C2.O=S(=O)(O)c1ccccc1 (stereo not drawn) [Bz--Glu--Gly--boroArg--C10 H16.BSA, Bz-Glu-Gly-boroArg-C10 H16.benzene sulfonic acid]",Percent Activity,Human plasma kallikrein; inhibitor 50 nM,39%
same,Percent Activity,Human thrombin; inhibitor 100 nM,46%
"CC(=O)NC(Cc1ccccc1)C(=O)N1CCCC1C(=O)NC(CCCNC(=N)N)B1OC2CC3CC(C3(C)C)C2(C)O1.Cl (stereo not drawn) [Ac--(D)Phe--Pro--boroArg--C10 H16.HCl, Ac-(D)Phe-Pro-boroArg-C10 H16.HCl]",Percent Activity,Human plasma kallikrein; inhibitor 10 nM,56%
same,Ki (suggested by inhibitor concentration and percent inhibition),Human thrombin; estimate from percent inhibition,in the picomolar range
same,inhibits thrombin,Human thrombin; inhibitor 5 nM,99%
same,Percent Activity,Human thrombin; inhibitor 5 nM,1%
"Cl.NC(N)=NCCC[C@H](NC(=O)[C@H](Cc1ccccc1)NC(=O)[C@@H]1CCCN1C(=O)c1ccccc1)B(O)O [Bz--Pro--Phe--boroArg--OH.HCl, Bz-Pro-Phe-boroArg-OH.HCl]",Percent Activity,Human plasma kallikrein; inhibitor 10 nM,16%
same,Percent Activity,Human thrombin; inhibitor 1000 nM,18%
"Br.CC(C)(C)OC(=O)NC(Cc1ccccc1)C(=O)NC(Cc1ccccc1)C(=O)NC(CCCSC(=N)N)B1OC2CC3CC(C3(C)C)C2(C)O1 (stereo not drawn) [Compound D, Boc-(D)Phe-Phe-boroIrg-C10 H16.HBr]",Percent Activity,Human plasma kallikrein; inhibitor 10 nM,2%
same,Percent Activity,Human thrombin; inhibitor 5 nM,48%
same,Calc. Concentration 2 × APTT,normal human plasma [1],370 nM
same,Activated Partial Thromboplastin Times,normal human plasma [1]; inhibitor 50 nM,35.8 s
same,Activated Partial Thromboplastin Times,normal human plasma [1]; inhibitor 125 nM,45.2 s
same,Activated Partial Thromboplastin Times,normal human plasma [1]; inhibitor 200 nM,46.2 s
same,Activated Partial Thromboplastin Times,normal human plasma [1]; inhibitor 275 nM,60.7 s
same,Activated Partial Thromboplastin Times,normal human plasma [1]; inhibitor 350 nM,75.7 s
same,Activated Partial Thromboplastin Times,normal human plasma [1]; inhibitor 550 nM,94.8 s
same,Calc. Concentration 2 × XPT,normal human plasma [2],1200 nM
same,Prothrombin Times,normal human plasma [2]; inhibitor 500 nM,15.7 s
same,Prothrombin Times,normal human plasma [2]; inhibitor 750 nM,17.2 s
same,Prothrombin Times,normal human plasma [2]; inhibitor 1000 nM,19.9 s
same,Prothrombin Times,normal human plasma [2]; inhibitor 2000 nM,23.4 s
same,Prothrombin Times,normal human plasma [2]; inhibitor 4000 nM,49.2 s
same,Percent Inhibition,Sprague Dawley CD Rats; [3],93%
"CCCCOC(=O)CC[C@H](NC(=O)c1ccccc1)C(=O)NCC(=O)NC(CCCNC(=N)N)B1OC2CC3CC(C3(C)C)C2(C)O1.O=S(=O)(O)c1ccccc1 (stereo partly drawn) [Bz--Glu(OBu)--Gly--boroArg--C10 H16.BSA, Bz-Glu(OBu)-Gly-boroArg-C10 H16.benzene sulfonic acid]",Percent Activity,Human plasma kallikrein; inhibitor 50 nM,11%
same,Percent Activity,Human thrombin; inhibitor 10 nM,52%
"CC(C)(C)OC(=O)NC(Cc1ccccc1)C(=O)NC(Cc1ccccc1)C(=O)NC(CCCN)B1OC2CC3CC(C3(C)C)C2(C)O1.O=S(=O)(O)c1ccccc1 (stereo not drawn) [Boc--(D)Phe--Phe--boroOrn--C10 H16.BSA, Boc-(D)Phe-Phe-boroOrn-C10 H16.benzene sulfonic acid]",Percent Activity,Human plasma kallikrein; inhibitor 10000 nM,39%
"COc1ccc2c(c1)c(CC(=O)O)c(C)n2C(=O)c1ccc(Cl)cc1 [Indomethacin, indomethacin, reference compound]",Mean Right ear Wt.,"Sprague Dawley CD Rats; 100 μg/ear with 5% croton oil, topical, 1 h",20.6 mg
same,Mean Swelling (mg ± SE),"Sprague Dawley CD Rats; 100 μg/ear with 5% croton oil, topical, 1 h, right minus left ear weight",5.0 ± 2.8 mg
same,Percent Inhibition,"Sprague Dawley CD Rats; Table 13, 100 μg/ear with 5% croton oil, topical, 1 h",55%
Ac-Ala-Lys(Boc)-boroArg-C10 H16.benzene sulfonic acid [Ac--Ala--Lys(Boc)--boroArg--C10 H16.BSA],Percent Activity,Human plasma kallikrein; inhibitor 10 nM,34%
same,Percent Activity,Human thrombin; inhibitor 100 nM,18%
"CC(=O)NC(C)C(=O)NC(CCCCN)C(=O)NC(CCCNC(=N)N)B1OC2CC3CC(C3(C)C)C2(C)O1.Cl.Cl (stereo not drawn) [Ac--Ala--Lys--boroArg--C10 H16.2HCl, Ac-Ala-Lys-boroArg-C10 H16.2HCl]",Percent Activity,Human plasma kallikrein; inhibitor 50 nM,39%
same,Percent Activity,Human thrombin; inhibitor 1000 nM,45%
"CC(C)(C)OC(=O)NC(Cc1ccccc1)C(=O)N1CCCC1C(=O)NC(CCCN)B1OC2CC3CC(C3(C)C)C2(C)O1.O=S(=O)(O)c1ccccc1 (stereo not drawn) [Boc--(D)Phe--Pro--boroOrn--C10 H16.BSA, Boc-(D)Phe-Pro-NH-CH[(CH2)3 NH2 ]BO2 -C10 H16.benzene sulfonic acid]",Percent Activity,Human plasma kallikrein; inhibitor 10000 nM,100%
same,Percent Activity,Human thrombin; inhibitor 100 nM,18%
Bz-Pro-Phe-boroArg-F.hydrogen chloride [Bz--Pro--Phe--boroArg--F],Percent Activity,Human plasma kallikrein; inhibitor 10 nM,18%
same,Percent Activity,Human thrombin; inhibitor 1000 nM,18%
"CC1(C)C2CC3OB(C(CCCNC(=N)N)NC(=O)C(Cc4ccccc4)NC(=O)C(N)Cc4ccccc4)OC3(C)C1C2.Cl.Cl (stereo not drawn) [H--(D)Phe--Phe--boroArg--C10 H16.2HCl, H-(D)Phe-Phe-boroArg-C10 H16.2HCl]",inhibits kallikrein,Human plasma kallikrein; inhibitor 10 nM,greater than 95%
same,Percent Activity,Human plasma kallikrein; inhibitor 10 nM,2.6%
same,Percent Activity,Human thrombin; inhibitor 10 nM,10%
"Br.CC(=O)NC(Cc1ccccc1)C(=O)NC(CCCSC(=N)N)B1OC2CC3CC(C3(C)C)C2(C)O1 (stereo not drawn) [G, Ac-Phe-boroIrg-C10 H16.HBr]",Percent Activity,Human plasma kallikrein; inhibitor 50 nM,17%
same,Percent Activity,Human thrombin; inhibitor 1000 nM,64%
same,Calc. Concentration 2 × APTT,normal human plasma [1],625 nM
same,Activated Partial Thromboplastin Times,normal human plasma [1]; inhibitor 50 nM,35.2 s
same,Activated Partial Thromboplastin Times,normal human plasma [1]; inhibitor 125 nM,36.2 s
same,Activated Partial Thromboplastin Times,normal human plasma [1]; inhibitor 200 nM,39.3 s
same,Activated Partial Thromboplastin Times,normal human plasma [1]; inhibitor 275 nM,58.2 s
same,Activated Partial Thromboplastin Times,normal human plasma [1]; inhibitor 350 nM,66.7 s
same,Activated Partial Thromboplastin Times,normal human plasma [1]; inhibitor 550 nM,98.4 s
same,Calc. Concentration 2 × XPT,normal human plasma [2],1200 nM
same,Prothrombin Times,normal human plasma [2]; inhibitor 500 nM,13.7 s
same,Prothrombin Times,normal human plasma [2]; inhibitor 750 nM,14.9 s
same,Prothrombin Times,normal human plasma [2]; inhibitor 1000 nM,19.7 s
same,Prothrombin Times,normal human plasma [2]; inhibitor 2000 nM,43.6 s
same,Percent Inhibition,Sprague Dawley CD Rats; [3],69%
"CC(NC(=O)OC(C)(C)C)C(=O)NC(Cc1ccccc1)C(=O)NC(CCCCN)B1OC(C)(C)C(C)(C)O1.Cl (stereo not drawn) [Boc--Ala--Phe--(D,L)boroLys--C6 H12.HCl, Boc-Ala-Phe-(D,L)boroLys-C6 H12.HCl]",Percent Activity,Human plasma kallikrein; inhibitor 1000 nM,17%
same,Percent Activity,Human thrombin; inhibitor 10000 nM,46%
"CC(C)CC(NC(=O)C(NC(=O)OC(C)(C)C)C(C)C)C(=O)NC(CCCCN)B1OC(C)(C)C(C)(C)O1.Cl (stereo not drawn) [Boc--(D)Val--Leu--boroLys--C6 H12.HCl, Boc-(D)Val-Leu-boroLys-C6 H12.benzene sulfonic acid]",Percent Activity,Human thrombin; inhibitor 1000 nM,21%
CC(C)CC(NC(=O)CNC(=O)C(CC(C)C)NC(=O)OC(C)(C)C)C(=O)NC(C)C(=O)NC(CCCNC(=N)N)B1OC2CC3CC(C3(C)C)C2(C)O1.O=S(=O)(O)c1ccccc1 (stereo not drawn) [Boc-Leu-Gly-Leu-Ala-boroArg-C10 H16.benzene sulfonic acid] (Boc-LGLA-X1; configuration not given here),Percent Activity,Human plasma kallikrein; inhibitor 10 nM,30%
same,Percent Activity,Human thrombin; inhibitor 10 nM,38%
